# Results as given in ChEMBL document CHEMBL4138123, “Design, synthesis and biological evaluation of novel pyrazolochalcones as potential modulators of PI3K/Akt/mTOR pathway and inducers of apoptosis in breast cancer cells” (Eur J Med Chem, 2017).
# Key:
# Type in all cases: functional
# COLO 205 = assay: Cytotoxicity against human COLO205 cells assessed as cell growth at 100 uM after 48 hrs by sulforhodamine B assay relative to control; conditions: COLO 205, 48 h, read-out: Activity
# HCT-116 [1] = assay: Cytotoxicity against human HCT116 cells assessed as cell growth at 0.01 uM after 48 hrs by sulforhodamine B assay relative to control; conditions: HCT-116, 48 h, read-out: Activity
# K562 = assay: Cytotoxicity against human K562 cells assessed as cell growth at 1 uM after 48 hrs by sulforhodamine B assay relative to control; conditions: K562, 48 h, read-out: Activity
# SNB-19 = assay: Cytotoxicity against human SNB19 cells assessed as growth inhibition after 48 hrs by sulforhodamine B assay; conditions: SNB-19, 48 h; for CC50: read-out: LC50 (the source's name)
# BT-549 = assay: Cytotoxicity against human BT549 cells assessed as cell growth at 1 uM after 48 hrs by sulforhodamine B assay relative to control; conditions: BT-549, 48 h, read-out: Activity
# UACC-257 = assay: Cytotoxicity against human UACC257 cells assessed as cell growth at 0.01 uM after 48 hrs by sulforhodamine B assay relative to control; conditions: UACC-257, 48 h, read-out: Activity
# OVCAR-8 [2] = assay: Cytotoxicity against human OVCAR8 cells assessed as cell growth at 100 uM after 48 hrs by sulforhodamine B assay relative to control; conditions: OVCAR-8, 48 h, read-out: Activity
# SF-539 = assay: Cytotoxicity against human SF539 cells assessed as cell growth at 1 uM after 48 hrs by sulforhodamine B assay relative to control; conditions: SF-539, 48 h, read-out: Activity
# A498 = assay: Cytotoxicity against human A498 cells assessed as cell growth at 100 uM after 48 hrs by sulforhodamine B assay relative to control; conditions: A498, 48 h, read-out: Activity
# NCI-H522 = assay: Cytotoxicity against human NCI-H522 cells assessed as cell growth at 0.1 uM after 48 hrs by sulforhodamine B assay relative to control; conditions: NCI-H522, 48 h, read-out: Activity
# SW-620 [3] = assay: Cytotoxicity against human SW620 cells assessed as cell growth at 0.1 uM after 48 hrs by sulforhodamine B assay relative to control; conditions: SW-620, 48 h, read-out: Activity
# HL-60(TB) [4] = assay: Cytotoxicity against human HL-60(TB) cells assessed as growth inhibition after 48 hrs by sulforhodamine B assay; conditions: HL-60, 48 h
# SW-620 [5] = assay: Cytotoxicity against human SW620 cells assessed as cell growth at 0.01 uM after 48 hrs by sulforhodamine B assay relative to control; conditions: SW-620, 48 h, read-out: Activity
# IGROV-1 = assay: Cytotoxicity against human IGROV1 cells assessed as cell growth at 10 uM after 48 hrs by sulforhodamine B assay relative to control; conditions: IGROV-1, 48 h, read-out: Activity
# NCI-H460 [6] = assay: Cytotoxicity against human NCI-H460 cells assessed as cell growth at 0.1 uM after 48 hrs by sulforhodamine B assay relative to control; conditions: NCI-H460, 48 h, read-out: Activity
# DU-145 = assay: Cytotoxicity against human DU145 cells assessed as cell growth at 100 uM after 48 hrs by sulforhodamine B assay relative to control; conditions: DU-145, 48 h, read-out: Activity
# PC-3 [7] = assay: Cytotoxicity against human PC3 cells assessed as cell growth at 0.1 uM after 48 hrs by sulforhodamine B assay relative to control; conditions: PC-3, 48 h, read-out: Activity
# HCC 2998 = assay: Cytotoxicity against human HCC2998 cells assessed as growth inhibition after 48 hrs by sulforhodamine B assay; conditions: HCC 2998, 48 h
# A549 = assay: Cytotoxicity against human A549/ATCC cells assessed as cell growth at 100 uM after 48 hrs by sulforhodamine B assay relative to control; conditions: A549, 48 h, read-out: Activity
# ACHN = assay: Cytotoxicity against human ACHN cells assessed as cell growth at 0.1 uM after 48 hrs by sulforhodamine B assay relative to control; conditions: read-out: Activity
# KM12 = assay: Cytotoxicity against human KM12 cells assessed as cell growth at 10 uM after 48 hrs by sulforhodamine B assay relative to control; conditions: KM12, 48 h, read-out: Activity
# NCI-H23 = assay: Cytotoxicity against human NCI-H23 cells assessed as cell growth at 0.1 uM after 48 hrs by sulforhodamine B assay relative to control; conditions: NCI-H23, 48 h, read-out: Activity
# OVCAR-8 [8] = assay: Cytotoxicity against human OVCAR8 cells assessed as cell growth at 0.1 uM after 48 hrs by sulforhodamine B assay relative to control; conditions: OVCAR-8, 48 h, read-out: Activity
# NCI-H460 [9] = assay: Cytotoxicity against human NCI-H460 cells assessed as cell growth at 1 uM after 48 hrs by sulforhodamine B assay relative to control; conditions: NCI-H460, 48 h, read-out: Activity
# PC-3 [10] = assay: Cytotoxicity against human PC3 cells assessed as cell growth at 100 uM after 48 hrs by sulforhodamine B assay relative to control; conditions: PC-3, 48 h, read-out: Activity
# UO-31 [11] = assay: Cytotoxicity against human UO31 cells assessed as cell growth at 10 uM after 48 hrs by sulforhodamine B assay relative to control; conditions: UO-31, 48 h, read-out: Activity
# UO-31 [12] = assay: Cytotoxicity against human UO31 cells assessed as growth inhibition after 48 hrs by sulforhodamine B assay; conditions: UO-31, 48 h
# SK-OV-3 = assay: Cytotoxicity against human SKOV3 cells assessed as growth inhibition after 48 hrs by sulforhodamine B assay; conditions: SK-OV-3, 48 h
# HL-60(TB) [13] = assay: Cytotoxicity against human HL-60(TB) cells assessed as cell growth at 1 uM after 48 hrs by sulforhodamine B assay relative to control; conditions: HL-60, 48 h, read-out: Activity
# MCF7 = assay: Cytotoxicity against human MCF7 cells assessed as cell growth at 0.1 uM after 48 hrs by sulforhodamine B assay relative to control; conditions: MCF7, 48 h, read-out: Activity
# T47D = assay: Cytotoxicity against human T47D cells assessed as cell growth at 10 uM after 48 hrs by sulforhodamine B assay relative to control; conditions: read-out: Activity
# NCI-H226 [14] = assay: Cytotoxicity against human NCI-H226 cells assessed as cell growth at 0.1 uM after 48 hrs by sulforhodamine B assay relative to control; conditions: NCI-H226, 48 h, read-out: Activity
# NCI-H226 [15] = assay: Cytotoxicity against human NCI-H226 cells assessed as cell growth at 1 uM after 48 hrs by sulforhodamine B assay relative to control; conditions: NCI-H226, 48 h, read-out: Activity
# SK-MEL-5 = assay: Cytotoxicity against human SK-MEL-5 cells assessed as cell growth at 0.1 uM after 48 hrs by sulforhodamine B assay relative to control; conditions: SK-MEL-5, 48 h, read-out: Activity
# HCT-116 [16] = assay: Cytotoxicity against human HCT116 cells assessed as cell growth at 0.1 uM after 48 hrs by sulforhodamine B assay relative to control; conditions: HCT-116, 48 h, read-out: Activity
structure (smiles),measurement,setting,value
COc1ccc(-c2cc(/C=C/C(=O)c3cc(OC)c(OC)c(OC)c3)[nH]n2)cc1OC,growth at 100 µM,COLO 205,-88%
same,growth at 0.01 µM,HCT-116 [1],100%
same,growth at 1 µM,K562,43%
same,GI50,SNB-19,1.8 µM
same,TGI,SNB-19,5.32 µM
same,CC50,SNB-19,27.1 µM
same,growth at 1 µM,BT-549,70%
same,growth at 0.01 µM,UACC-257,96%
same,growth at 100 µM,OVCAR-8 [2],-84%
same,growth at 1 µM,SF-539,17%
same,growth at 100 µM,A498,-91%
same,growth at 0.1 µM,NCI-H522,86%
same,growth at 0.1 µM,SW-620 [3],96%
same,GI50,HL-60(TB) [4],1.69 µM
same,LC50,HL-60(TB) [4],> 100 µM
same,TGI,HL-60(TB) [4],14.8 µM
same,growth at 0.01 µM,SW-620 [5],98%
same,growth at 10 µM,IGROV-1,-7%
same,growth at 0.1 µM,NCI-H460 [6],100%
same,growth at 100 µM,DU-145,-88%
same,growth at 0.1 µM,PC-3 [7],93%
same,GI50,HCC 2998,1.9 µM
same,LC50,HCC 2998,6.09 µM
same,TGI,HCC 2998,3.4 µM
same,growth at 100 µM,A549,-62%
same,growth at 0.1 µM,ACHN,91%
same,growth at 10 µM,KM12,-81%
same,growth at 0.1 µM,NCI-H23,95%
same,growth at 0.1 µM,OVCAR-8 [8],100%
same,growth at 1 µM,NCI-H460 [9],52%
same,growth at 100 µM,PC-3 [10],-74%
same,growth at 10 µM,UO-31 [11],-95%
same,GI50,UO-31 [12],1.27 µM
same,LC50,UO-31 [12],5.29 µM
same,TGI,UO-31 [12],2.59 µM
same,GI50,SK-OV-3,5.47 µM
same,LC50,SK-OV-3,45.5 µM
same,TGI,SK-OV-3,19 µM
same,growth at 1 µM,HL-60(TB) [13],64%
same,growth at 0.1 µM,MCF7,86%
same,growth at 10 µM,T47D,-37%
same,growth at 0.1 µM,NCI-H226 [14],90%
same,growth at 1 µM,NCI-H226 [15],73%
same,growth at 0.1 µM,SK-MEL-5,102%
same,growth at 0.1 µM,HCT-116 [16],88%
COc1ccc(C(=O)/C=C/c2cc(-c3cc(OC)c(OC)c(OC)c3)n[nH]2)cc1,growth at 100 µM,COLO 205,-81%
same,growth at 0.01 µM,HCT-116 [1],100%
same,growth at 1 µM,K562,89%
same,TGI,SNB-19,3.03 µM
same,growth at 1 µM,BT-549,93%
same,growth at 0.01 µM,UACC-257,97%
same,growth at 100 µM,OVCAR-8 [2],-16%
same,growth at 1 µM,SF-539,87%
same,growth at 100 µM,A498,-34%
same,growth at 0.1 µM,NCI-H522,87%
same,growth at 0.1 µM,SW-620 [3],97%
same,LC50,HL-60(TB) [4],> 100 µM
same,TGI,HL-60(TB) [4],4.78 µM
same,growth at 0.01 µM,SW-620 [5],99%
same,growth at 10 µM,IGROV-1,-47%
same,growth at 0.1 µM,NCI-H460 [6],102%
same,growth at 100 µM,DU-145,-2%
same,growth at 0.1 µM,PC-3 [7],95%
same,LC50,HCC 2998,6.48 µM
same,TGI,HCC 2998,3.4 µM
same,growth at 100 µM,A549,1%
same,growth at 0.1 µM,ACHN,102%
same,growth at 10 µM,KM12,-88%
same,growth at 0.1 µM,NCI-H23,92%
same,growth at 0.1 µM,OVCAR-8 [8],98%
same,growth at 1 µM,NCI-H460 [9],85%
same,growth at 100 µM,PC-3 [10],1%
same,growth at 10 µM,UO-31 [11],-93%
same,LC50,UO-31 [12],5.59 µM
same,TGI,UO-31 [12],2.84 µM
same,LC50,SK-OV-3,> 100 µM
same,TGI,SK-OV-3,20.5 µM
same,growth at 1 µM,HL-60(TB) [13],99%
same,growth at 0.1 µM,MCF7,93%
same,growth at 10 µM,T47D,1%
same,growth at 0.1 µM,NCI-H226 [14],102%
same,growth at 1 µM,NCI-H226 [15],92%
same,growth at 0.1 µM,SK-MEL-5,99%
same,growth at 0.1 µM,HCT-116 [16],102%
COc1ccc(-c2cc(/C=C/C(=O)c3ccc(N)cc3)[nH]n2)cc1OC,growth at 100 µM,COLO 205,-78%
same,growth at 0.01 µM,HCT-116 [1],96%
same,growth at 1 µM,K562,71%
same,GI50,SNB-19,4.36 µM
same,TGI,SNB-19,18 µM
same,CC50,SNB-19,46.1 µM
same,growth at 1 µM,BT-549,80%
same,growth at 0.01 µM,UACC-257,90%
same,growth at 100 µM,OVCAR-8 [2],-86%
same,growth at 1 µM,SF-539,88%
same,growth at 100 µM,A498,-98%
same,growth at 0.1 µM,NCI-H522,95%
same,growth at 0.1 µM,SW-620 [3],97%
same,GI50,HL-60(TB) [4],3.45 µM
same,LC50,HL-60(TB) [4],> 100 µM
same,TGI,HL-60(TB) [4],> 100 µM
same,growth at 0.01 µM,SW-620 [5],99%
same,growth at 10 µM,IGROV-1,24%
same,growth at 0.1 µM,NCI-H460 [6],100%
same,growth at 100 µM,DU-145,-100%
same,growth at 0.1 µM,PC-3 [7],95%
same,GI50,HCC 2998,2.02 µM
same,LC50,HCC 2998,7.24 µM
same,TGI,HCC 2998,3.83 µM
same,growth at 100 µM,A549,-76%
same,growth at 0.1 µM,ACHN,93%
same,growth at 10 µM,KM12,-79%
same,growth at 0.1 µM,NCI-H23,103%
same,growth at 0.1 µM,OVCAR-8 [8],99%
same,growth at 1 µM,NCI-H460 [9],94%
same,growth at 100 µM,PC-3 [10],-48%
same,growth at 10 µM,UO-31 [11],11%
same,GI50,UO-31 [12],3.03 µM
same,LC50,UO-31 [12],43.2 µM
same,TGI,UO-31 [12],13.1 µM
same,GI50,SK-OV-3,4.86 µM
same,LC50,SK-OV-3,41.3 µM
same,TGI,SK-OV-3,16.8 µM
same,growth at 1 µM,HL-60(TB) [13],97%
same,growth at 0.1 µM,MCF7,89%
same,growth at 10 µM,T47D,28%
same,growth at 0.1 µM,NCI-H226 [14],91%
same,growth at 1 µM,NCI-H226 [15],86%
same,growth at 0.1 µM,SK-MEL-5,95%
same,growth at 0.1 µM,HCT-116 [16],101%
